For 16 compounds, EC50 results are on record in patent US10138255B2, “Piperazine derivatives as HIV protease inhibitors” (Merck Sharp & Dohme Corp., priority 2014, dated 2018).

This assay relates to HIV-1 (H9IIIB strain). Briefly: Cell-Based HIV Infection Assay Using a Reporter (MT4-GFP cells). Conditions: MT4-GFP cells infected with HIV-1 H9IIIB, 50% normal human serum, mean of at least two independent experiments, read-out: Cell Based IP (50% NHS). The protocol: Cell-Based HIV Infection Assay Using a Reporter (“Cell-Based”):
MT4-GFP cells contain a stably integrated HIV long terminal repeat promoter directing the transcription of green fluorescent protein (GFP). When HIV infects the cell, GFP is produced and the cell becomes green. MT4-GFP cells (250,000 cells/mL) were bulk-infected with HIV-1 (H9IIIB strain) at low multiplicity of infection (MOI) in RPM 1640 media, supplemented with 10% FBS for 24 h. Cells were then washed once in RPMI 1640 plus 10% FBS and resuspended in RPMI plus 50% normal human serum (NHS). Test compounds were serial-diluted in DMSO using an ECHO liquid dispenser. A control well included a combination of three HIV drugs (an inhibitor of HIV protease, integrase strand transfer and a non-nucleoside reverse transcriptase inhibitor; triple drug). The infected MT4-GFP cells were added to a 384-well poly-D-lysine coated black plate with clear bottom in which the diluted test compounds were placed. The cells were seeded in the plate at 8,000 cells per well and the final DMSO concentration was 0.4%. Infected cells were quantified at both 24 and 48 h post incubation using an Acumen eX3 plate reader. Viral reproductive ratio (R0) was determined using the number of infected cells at 48 h divided by the number of infected cells at 24 h. Percent viral growth inhibition was calculated by [1−(R−Rtripledrug)/(RDMSO−Rtripledrug)]*100. Compound potency inflection point (IP) was determined with use of a 4-parameter dose response curve analysis.
Data shown in the table reflects the mean of at least two independent experiments.

Setting [1] is: Human immunodeficiency virus 1, inflection point (IP) of viral growth inhibition.

The structures appear in SMILES notation. Read-outs that look alike come from different tables or passages of the source.

Regarding `COC(=O)N[C@H](C(=O)Nc1cncc(F)c1CC[C@H]1CN[C@@H]2CCCS(=O)(=O)N1C2)C1(c2ccc(Cl)cc2)CCC(C(F)(F)F)CC1` (relative stereo) [Example 270, methyl {(1S)-1-[cis-1-(4-chlorophenyl)-4-(trifluoromethyl)cyclohexyl]-2-[(4-{2-[(6R,9S)-2,2-dioxido-2-thia-1,7-diazabicyclo[4.3.1]dec-9-yl]ethyl}-5-fluoropyridin-3-yl)amino]-2-oxoethyl}carbamate], the EC50 (inflection point (IP) of viral growth inhibition) is reported as 20 nM.
Consider `COC(=O)N[C@H](C(=O)Nc1cccc(F)c1CCC1CNC2CCCS(=O)(=O)N1C2)C(c1ccc(OC)nc1)c1ccc(F)c(F)c1` (stereo in doubt) [Example 68, methyl [(1S,2R)-2-(3,4-difluorophenyl)-1-({2-[2-(2,2-dioxido-2-thia-1,7-diazabicyclo[4.3.1]dec-9-yl)ethyl]-3-fluorophenyl}carbamoyl)-2-(6-methoxypyridin-3-yl)ethyl]carbamate], for which the EC50 under setting [1] was found to be 12 nM.
Same read-out and setting: the result for `COC(=O)N[C@H](C(=O)Nc1cccc(F)c1CCC1CNC2CCCS(=O)(=O)N1C2)C(c1ccc(Cl)cc1)c1ccc(OC(C)C)nc1` (stereo in doubt) [Example 94, methyl {(1S,2R)-2-(4-chlorophenyl)-1-({2-[2-(2,2-dioxido-2-thia-1,7-diazabicyclo[4.3.1]dec-9-yl)ethyl]-3-fluorophenyl}carbamoyl)-2-[6-(1-methylethoxy)pyridin-3-yl]ethyl}carbamate] reads 6.4 nM.
On the same count and under the same terms, then `N[C@H](C(=O)Nc1cccc(F)c1CCC1CNC2CCCS(=O)(=O)N1C2)C(c1ccc(Cl)cc1)c1ccnc(C(F)(F)F)c1` (stereo in doubt) [Example 123, (βR)-4-chloro-N-{2-[2-(2,2-dioxido-2-thia-1,7-diazabicyclo[4.3.1]dec-9-yl)ethyl]-3-fluorophenyl}-β-[2-(trifluoromethyl)pyridin-4-yl]-L-phenylalaninamide], with 6.8 nM; and `CC(C)Oc1ccc(C(c2ccc(Cl)cc2)[C@H](N)C(=O)Nc2cncc(F)c2CC[C@H]2CN[C@@H]3CCCS(=O)(=O)N2C3)cn1` (stereo in doubt) [Example 240, (2S,3R)-2-amino-3-(4-chlorophenyl)-N-(4-(2-((6R,9S)-2,2-dioxido-2-thia-1,7-diazabicyclo[4.3.1]decan-9-yl)ethyl)-5-fluoropyridin-3-yl)-3-(6-isopropoxypyridin-3-yl)propanamide], with 8.4 nM; and `N[C@H](C(=O)Nc1cccc(F)c1CCC1CNC2CCCS(=O)(=O)N1C2)[C@@H](c1ccc(F)cc1)c1cc(F)cc(F)c1` (stereo partly drawn) [Example 1, (βS)—N-{2-[2-(2,2-Dioxido-2-thia-1,7-diazabicyclo[4.3.1]dec-9-yl)ethyl]-3-fluorophenyl}-3,5-difluoro-β-(4-fluorophenyl)-L-phenylalaninamide], with 2.9 nM.
The same measure, in the same setting: the result for `N[C@H](C(=O)Nc1cccc(F)c1CCC1CNC2CCCS(=O)(=O)N1C2)[C@@H](c1ccc(F)cc1)c1cccc(C(F)(F)F)c1` (stereo partly drawn) [Example 2, (βS)—N-{2-[2-(2,2-Dioxido-2-thia-1,7-diazabicyclo[4.3.1]dec-9-yl)ethyl]-3-fluorophenyl}-β-(4-fluorophenyl)-3-(trifluoromethyl)-L-phenylalaninamide] reads 6.7 nM; that for `COC(=O)N[C@H](C(=O)Nc1cccc(F)c1CCC1CNC2CCCS(=O)(=O)N1C2)[C@@H](c1ccc(Cl)cc1)C(C)C` (stereo partly drawn) [Example 3, Methyl [(1S,2R)-2-(4-chlorophenyl)-1-({2-[2-(2,2-dioxido-2-thia-1,7-diazabicyclo[4.3.1]dec-9-yl)ethyl]-3-fluorophenyl}carbamoyl)-3-methylbutyl]carbamate], 14 nM; that for `COC(=O)N[C@H](C(=O)Nc1cccc(F)c1CCC1CNC2CCCS(=O)(=O)N1C2)[C@@H](c1ccc(Cl)cc1)C1CC(F)(F)C1` (stereo partly drawn) [Example 4, Methyl [(1S,2R)-2-(4-chlorophenyl)-2-(3,3-difluorocyclobutyl)-1-({2-[2-(2,2-dioxido-2-thia-1,7-diazabicyclo[4.3.1]dec-9-yl)ethyl]-3-fluorophenyl}carbamoyl)ethyl]carbamate], 13 nM.
Regarding `COC(=O)N[C@H](C(=O)Nc1cccc(F)c1CCC1CNC2CCCS(=O)(=O)N1C2)[C@@H](c1ccc(Cl)cc1)C1CCC(F)(F)CC1` (stereo partly drawn) [Example 5, Methyl [(1S,2R)-2-(4-chlorophenyl)-2-(4,4-difluorocyclohexyl)-1-({2-[2-(2,2-dioxido-2-thia-1,7-diazabicyclo[4.3.1]dec-9-yl)ethyl]-3-fluorophenyl}carbamoyl)ethyl]carbamate], the EC50 under setting [1] is 9.4 nM.
The same measure, in the same setting: the result for `CCO[C@H]1CC[C@H]([C@H](c2ccc(Cl)cc2)[C@H](N)C(=O)Nc2cccc(F)c2CC[C@H]2CN[C@@H]3CCCS(=O)(=O)N2C3)CC1` [Example 6, (2S,3R)-2-amino-3-(4-chlorophenyl)-N-(2-(2-((6R,9S)-2,2-dioxido-2-thia-1,7-diazabicyclo[4.3.1]decan-9-yl)ethyl)-3-fluorophenyl)-3-((1r,4R)-4-ethoxycyclohexyl)propanamide] reads 6.2 nM; that for `CO[C@H]1CC[C@H]([C@H](c2ccc(Cl)cc2)[C@H](N)C(=O)Nc2cccc(F)c2CC[C@H]2CN[C@@H]3CCCS(=O)(=O)N2C3)CC1` [Example 7, (βR)-4-Chloro-N-(2-{2-[(6R,9S)-2,2-dioxido-2-thia-1,7-diazabicyclo[4.3.1]dec-9-yl]ethyl}-3-fluorophenyl)-β-[(1r,4R)-4-methoxycyclohexyl]-L-phenylalaninamide], 3.1 nM; that for `COC(=O)N[C@H](C(=O)Nc1cccc(F)c1CC[C@H]1CN[C@@H]2CCCS(=O)(=O)N1C2)[C@@H](c1ccc(Cl)cc1)[C@H]1CCO[C@@H](CC(F)(F)F)C1` [Example 8, Methyl ((1R,2S)-1-(4-chlorophenyl)-3-((2-(2-((6R,9S)-2,2-dioxido-2-thia-1,7-diazabicyclo[4.3.1]decan-9-yl)ethyl)-3-fluorophenyl)amino)-3-oxo-1-((2R,4S)-2-(2,2,2-trifluoroethyl)tetrahydro-2H-pyran-4-yl)propan-2-yl)carbamate], 8.7 nM.
In the case of `COC(=O)N[C@H](C(=O)Nc1cccc(F)c1CCC1CNC2CCCS(=O)(=O)N1C2)[C@H](CCC1CCOCC1)c1ccc(Cl)c(F)c1` (stereo partly drawn) [Example 9, Methyl [(1S,2R)-2-(4-chloro-3-fluorophenyl)-1-({2-[2-(2,2-dioxido-2-thia-1,7-diazabicyclo[4.3.1]dec-9-yl)ethyl]-3-fluorophenyl}carbamoyl)-4-(tetrahydro-2H-pyran-4-yl)butyl]carbamate], the EC50 under setting [1] came to 7.1 nM.
Turning to `CC1(C)C[C@@H]([C@H](c2ccc(Cl)cc2)[C@H](N)C(=O)Nc2cccc(F)c2CC[C@H]2CN[C@@H]3CCCS(=O)(=O)N2C3)CCO1` [Example 10, (2S,3R)-2-amino-3-(4-chlorophenyl)-3-((S)-2,2-dimethyltetrahydro-2H-pyran-4-yl)-N-(2-(2-((6R,9S)-2,2-dioxido-2-thia-1,7-diazabicyclo[4.3.1]decan-9-yl)ethyl)-3-fluorophenyl)propanamide], the EC50 under setting [1] is 6.7 nM.
Same read-out and setting: the result for `CC(C)Oc1ccc([C@H](c2ccc(Cl)cc2)[C@H](N)C(=O)Nc2cccc(F)c2CCC2CNC3CCCS(=O)(=O)N2C3)cn1` (stereo partly drawn) [Example 11, (βS)-4-Chloro-N-{2-[2-(2,2-dioxido-2-thia-1,7-diazabicyclo[4.3.1]dec-9-yl)ethyl]-3-fluorophenyl}-β-[6-(1-methylethoxy)pyridin-3-yl]-L-phenylalaninamide] reads 4 nM.
